Results reported in patent US20210002209A1, “NOVEL CRYSTALLINE FORMS OF TAMIBAROTENE FOR TREATMENT OF CANCER” (TRANSGENEX NANOBIOTECH, INC., priority 2018, published 2021).
Values after ≈ are worked out from the molar mass of the structure shown. Like-named read-outs stand apart in the source and are kept apart here.

Key:
[1] = cited from earlier work
H460 = experiment: IC50 studies, monolayer cell culture assay (CellTiter-Glo cell viability, 72 hours); format: cell-based
Procedure: (§1) Cancer cell lines listed in Table 1, were subjected for testing anti-cancer potency or the half maximal inhibitory concentration (IC50) of tamibarotene molecular complexes.
(§2) The SK-ES-1, U-2 OS, and SAOS-2 cells were cultured in a growth medium that is ATCC-formulated McCoy's 5a Medium Modified, Catalog No. 30-2007. The PC-3, PANC-1, SK-Mel-5, A549, H460, and H1299 were cultured in a growth medium that is ATCC-formulated Dulbecco's Modified Eagle's Medium (DMEM), Catalog No. 30-2002. The cells were seeded on 96-well microtiter plates with 3500 cells per well and cultured in an incubator (Model 3120, Thermo Scientific, USA) with a constant temperature at 37° C. and 5% carbon dioxide (CO2) gas for 24 hours.
(§3) The new tamibarotene molecular complexes were made into a series with concentration of 200 nM to 40 nM, 8 nM, 1.6 nM, 0.32 nM, and 0.064 nM. […]
(§4) The treated cells in the 96 well plate was then further cultured at the same conditions for 72 hours and then subjected for a final cell viability measurement. The measurement used a homogeneous method to determine the number of metabolically active cells presented in each of treatments. A testing reagent for the measurement is a mixture solution of the CellTiter-Glo® 2.0 reagent (CTG, Promega Cat #G9243, USA) and growth medium in 1:1 ratio in this respect.
(§5) The 96-well plate with the new molecular complex treated cells was taken out from incubator after the 72 hours of incubation, and the treatment solution in each well was removed using a multichannel pipette, and 100 μl of the testing reagent were added into each well. The plate was then placed on a plate shaker for 15 min. The plate was covered with a piece of aluminum foil to protect the CTG luminescence during the shaking time.
(§6) Then 90 μl of the 100 μl testing reagent were transferred into an opaque-walled 96-well plate for the CTG luminescence reading on a plate reader (SynergyH4 Hybrid Reader, Biotek, USA). The luminescence intensity of each treatment was positively correlated with the number of cells survived during the treatments.
(§7) All the treatment data was normalized by comparing with the control samples that had only growth medium without any molecular complexes. The half maximal inhibitory concentration (IC50) data was calculated using the nonlinear regression model and dose-responses (inhibition) curve built in the software. Each of treatments was performed in three replications each time and repeated three times for validation. The IC50 average […] (Avg) and standard deviation (STDV) were calculated based on the three replications.

H1299 = experiment: as above; format: cell-based
Procedure: as §1, §2, §3, §4, §5, §6, §7

PC-3 = experiment: as above; format: cell-based; conditions: PC-3, prostate
Procedure: as §1, §2, §3, §4, §5, §6, §7

SK-Mel-5 = experiment: as above; format: cell-based; conditions: SK-Mel-5, skin
Procedure: as §1, §2, §3, §4, §5, §6, §7

SK-ES-1 = experiment: as above; format: cell-based
Procedure: as §1, §2, §3, §4, §5, §6, §7

A549 = experiment: as above; format: cell-based; conditions: A549, lung
Procedure: as §1, §2, §3, §4, §5, §6, §7

U-2 OS = experiment: as above; format: cell-based; conditions: sarcoma
Procedure: as §1, §2, §3, §4, §5, §6, §7

SAOS = experiment: as above; format: cell-based; conditions: sarcoma
Procedure: as §1, §2, §3, §4, §5, §6, §7

[2] = test system: sarcoma cell line SK-ES-1; experiment: Tumor sphere formation assay; format: cell-based; conditions: SK-ES-1 spheres, diameter over 50 μm, day 6
Text: Cancer stem cells (CSCs) are defined as a small subset of cells within a tumor with the ability to self-renew and often drive tumor progression and recurrence after chemotherapy treatment (Zhou et al. (2015) “A Reliable Parameter to Standardize the Scoring of Stem Cell Spheres,” PLOS One 10(5); e0127348). It is important to study the responses of cancer stem cells or the tumors treated with the new molecular complexes. We have assessed CSC growth using tumor sphere formation assay, which involves culturing cancer cells in low attachment plates in serum free media. Sphere size and diameter was measured using ImageJ software and statistical analysis was performed using Graph Pad Prism Software. […]
On the day 6 of seeding, 10 μl of NucBlue Live Cell Stain ReadyProbes (Invitrogen Cat #R37605, USA) were added into each well for staining to visualize the live cells under the blue fluorescent light. […] Then the plate was brought to the Keyence imaging device (Keyence America, All-in-One Fluorescence Microscope BZ-X800, USA) for image scanning. […]
The sphere image area is calculated as a sum of image area of every individual sphere with diameter over 50 μm in each treatment well. […]
The sarcoma spheres were stained with NucBlue Live Cell Stain ReadyProbes (Invitrogen Cat #R37605) and imaged under 4× objective lens on Keyence imaging scanner (Keyence America, All-in-One Fluorescence Microscope BZ-X800).

[3] = Homo sapiens, Test I, read-out: IC50 Test(I) Avg
[4] = Homo sapiens, Test II, read-out: IC50 Test (II) Avg
[5] = Homo sapiens, Test III, read-out: IC50 Test (III) Avg
[6] = Test I, read-out: IC50 Test(I) Avg
[7] = Test II, read-out: IC50 Test (II) Avg
[8] = Test III, read-out: IC50 Test (III) Avg
[9] = H460, lung, Test I, read-out: IC50 Test(I) Avg
[10] = H460, lung, Test II, read-out: IC50 Test (II) Avg
[11] = H460, lung, Test III, read-out: IC50 Test (III) Avg
[12] = H1299, lung, Test I, read-out: IC50 Test(I) Avg
[13] = H1299, lung, Test II, read-out: IC50 Test (II) Avg
[14] = H1299, lung, Test III, read-out: IC50 Test (III) Avg

In the case of `CC1(C)CCC(C)(C)c2cc(NC(=O)c3ccc(C(=O)O)cc3)ccc21` [TAM, 4-[(5,5,8,8-tetramethyl-5,6,7,8-tetrahydronaphthalen-2-yl)carbamoyl]benzoic acid, reference compound], the “solubility in DMF, methanol, ethanol, DMSO, and other organic solvents” value [1] is listed as “soluble”, the “solubility in acetonitrile, water, and various other buffer solutions” value ([1]; pH 3~7, from CN101200435 (B)) is listed as “insoluble” and the water solubility ([1]; water, drug bank) is listed as 0.575 µg/mL (≈ 1.64 µM). For the same compound, the IC50 (H460; Homo sapiens, NCI-H460, H460, lung, Test I, read-out: IC50 Test(I) Avg) was 69.3 µM, the IC50 (H460; Homo sapiens, NCI-H460, H460, lung, Test II, read-out: IC50 Test (II) Avg) was 58.3 µM and the IC50 (H460; Homo sapiens, NCI-H460, H460, lung, Test III, read-out: IC50 Test (III) Avg) was 67.1 µM. For the same compound, the IC50 (H1299; Homo sapiens, NCI-H1299, H1299, lung, Test I, read-out: IC50 Test(I) Avg) was 78.9 µM, the IC50 (H1299; Homo sapiens, NCI-H1299, H1299, lung, Test II, read-out: IC50 Test (II) Avg) was 67.3 µM and the IC50 (H1299; Homo sapiens, NCI-H1299, H1299, lung, Test III, read-out: IC50 Test (III) Avg) was 83 µM. The IC50 (PC-3; [3]) was > 100 µM, the IC50 (PC-3; [4]) was > 100 µM and the IC50 (PC-3; [5]) was > 100 µM. The IC50 (SK-Mel-5; [3]) was > 100 µM, the IC50 (SK-Mel-5; [4]) was > 100 µM and the IC50 (SK-Mel-5; [5]) was > 100 µM. For the same compound, the IC50 (SK-ES-1; Homo sapiens, SK-ES1, SK-ES-1, sarcoma, Test I, read-out: IC50 Test(I) Avg) was > 100 µM, the IC50 (SK-ES-1; Homo sapiens, SK-ES1, SK-ES-1, sarcoma, Test II, read-out: IC50 Test (II) Avg) was 73.2 µM and the IC50 (SK-ES-1; Homo sapiens, SK-ES1, SK-ES-1, sarcoma, Test III, read-out: IC50 Test (III) Avg) was 72.5 µM. For the same compound, the IC50 (A549; [3]) was 59.9 µM, the IC50 (A549; [4]) was 60.6 µM and the IC50 (A549; [5]) was 57.8 µM. For the same compound, the IC50 (U-2 OS; Homo sapiens, U2OS, Test I, read-out: IC50 Test(I) Avg) was > 100 µM, the IC50 (U-2 OS; Homo sapiens, U2OS, Test II, read-out: IC50 Test (II) Avg) was 77.7 µM and the IC50 (U-2 OS; Homo sapiens, U2OS, Test III, read-out: IC50 Test (III) Avg) was 69.7 µM. The IC50 (SAOS; [6]) was 55.4 µM, the IC50 (SAOS; [7]) was 46.5 µM and the IC50 (SAOS; [8]) was > 100 µM.
`CC1(C)CCC(C)(C)c2cc(NC(=O)c3ccc(C(=O)O)cc3)ccc21.O=C(O)c1ccc(-c2ccccc2)cc1` [TAM-biphenyl-4-carboxylic acid] showed an IC50 (H460; [9]) of 56 µM, an IC50 (H460; [10]) of 51.7 µM and an IC50 (H460; [11]) of 55.2 µM. For the same compound, the IC50 (H1299; [12]) was 65.5 µM, the IC50 (H1299; [13]) was 59.8 µM and the IC50 (H1299; [14]) was 65.3 µM. For the same compound, the IC50 (A549; [6]) was 49.3 µM, the IC50 (A549; [7]) was 41.3 µM and the IC50 (A549; [8]) was 46.3 µM. For the same compound, the IC50 (SAOS; [6]) was 43.5 µM, the IC50 (SAOS; [7]) was 37.1 µM and the IC50 (SAOS; [8]) was > 100 µM.
For `CC1(C)CCC(C)(C)c2cc(NC(=O)c3ccc(C(=O)O)cc3)ccc21.O=C(O)c1ccccc1-c1ccccc1C(=O)O` [TAM-diphenic acid], the IC50 (H460; [9]) was 35 µM, the IC50 (H460; [10]) was 34.7 µM and the IC50 (H460; [11]) was 32.3 µM. It also gave an IC50 (H1299; [12]) of 40.8 µM, an IC50 (H1299; [13]) of 41.4 µM and an IC50 (H1299; [14]) of 39.9 µM. For the same compound, the IC50 (A549; [6]) was 21.7 µM, the IC50 (A549; [7]) was 38.9 µM and the IC50 (A549; [8]) was 26.6 µM.
For `CC1(C)CCC(C)(C)c2cc(NC(=O)c3ccc(C(=O)O)cc3)ccc21.O=C(O)c1cc(O)c(O)c(O)c1` [TAM-gallic acid], the “tumor spheres size compared with the parent molecule” value [2] was “reduced tumor spheres size”, the IC50 (H460; [9]) was 42 µM and the IC50 (H460; [10]) was 41.9 µM. For the same compound, the IC50 (H460; [11]) was 41.3 µM, the IC50 (H1299; [12]) was 11.2 µM and the IC50 (H1299; [13]) was 24.8 µM. For the same compound, the IC50 (H1299; [14]) was 11.7 µM, the IC50 (PC-3; [6]) was 81 µM and the IC50 (PC-3; [7]) was 90.3 µM. The IC50 (PC-3; [8]) was 108 µM, the IC50 (SK-Mel-5; [6]) was 47.5 µM and the IC50 (SK-Mel-5; [7]) was 64.2 µM. For the same compound, the IC50 (SK-Mel-5; [8]) was 88.5 µM, the IC50 (SK-ES-1; SK-ES-1, sarcoma, Test I, read-out: IC50 Test(I) Avg) was 10.1 µM and the IC50 (SK-ES-1; SK-ES-1, sarcoma, Test II, read-out: IC50 Test (II) Avg) was 5.94 µM. For the same compound, the IC50 (SK-ES-1; SK-ES-1, sarcoma, Test III, read-out: IC50 Test (III) Avg) was 6.76 µM, the IC50 (A549; [6]) was 39.9 µM and the IC50 (A549; [7]) was 43.3 µM. It also gave an IC50 (A549; [8]) of 39.9 µM, an IC50 (U-2 OS; [6]) of 16.4 µM and an IC50 (U-2 OS; [7]) of 13 µM. The IC50 (U-2 OS; [8]) was 10.6 µM, the IC50 (SAOS; [6]) was 11.6 µM and the IC50 (SAOS; [7]) was 9.98 µM. The IC50 (SAOS; [8]) was 14.9 µM.
Work on `CC1(C)CCC(C)(C)c2cc(NC(=O)c3ccc(C(=O)O)cc3)ccc21.NC(=O)c1cccnc1` [TAM-nicotinamide] yielded an IC50 (H460; [9]) of 56.6 µM, an IC50 (H460; [10]) of 51.1 µM and an IC50 (H460; [11]) of 50.3 µM. It also gave an IC50 (H1299; [12]) of 49.7 µM, an IC50 (H1299; [13]) of 55.9 µM and an IC50 (H1299; [14]) of 53.9 µM. For the same compound, the IC50 (A549; [6]) was 56.6 µM, the IC50 (A549; [7]) was 59.1 µM and the IC50 (A549; [8]) was 49.8 µM.
